How the values were obtained:
Format in all cases: in vivo
Setaria faberi (SETFA) [1] = test: Herbicidal glasshouse test, pre-emergence; conditions: PRE Application, evaluated after 13 days; for pest or weed control at 250 g/ha: Setaria faberi, pre-emergence, 312 h, read-out: damage to plant (100=total damage to plant; 0=no damage to plant); for damage to plant (100=total damage to plant; 0=no damage to plant): 250 g/ha
Protocol: (§1) Seeds of a variety of test species were sown in standard soil in pots (Alopecurus myosuroides (ALOMY), Setaria faberi (SETFA), Echinochloa crus-galli (ECHCG), Abuthilon theophrasti (ABUTH) and Amaranthus retoflexus (AMARE)). After cultivation for one day (pre-emergence) or after 8 days cultivation (post-emergence) under controlled conditions in a glasshouse (at 24/16° C., day/night; 14 hours light; 65% humidity), the plants were sprayed with an aqueous spray solution derived from the formulation of the technical active ingredient in acetone/water (50:50) solution containing 0.5% Tween 20 (polyoxyethelyene sorbitan monolaurate, CAS RN 9005-64-5). Compounds were applied at 250 g/ha. The test plants were then grown in a glasshouse under controlled conditions in a glasshouse (at 24/16° C., day/night; 14 hours light; 65% humidity) and watered twice daily. After 13 days for pre and post-emergence, the test was evaluated (100=total damage to plant; 0=no damage to plant).

[2] = test system: Alopecurus myosuroides (ALOMY); test: Herbicidal glasshouse test, pre-emergence; conditions: PRE Application, evaluated after 13 days; for pest or weed control at 250 g/ha: Alopecurus myosuroides, pre-emergence, 312 h, read-out: damage to plant (100=total damage to plant; 0=no damage to plant); for damage to plant (100=total damage to plant; 0=no damage to plant): 250 g/ha
Protocol: as §1

[3] = test system: Echinochloa crus-galli (ECHCG); test: Herbicidal glasshouse test, pre-emergence; conditions: PRE Application, evaluated after 13 days; for pest or weed control at 250 g/ha: Echinochloa crus-galli, pre-emergence, 312 h, read-out: damage to plant (100=total damage to plant; 0=no damage to plant); for damage to plant (100=total damage to plant; 0=no damage to plant): 250 g/ha
Protocol: as §1

[4] = test system: Amaranthus retoflexus (AMARE); test: Herbicidal glasshouse test, pre-emergence; conditions: PRE Application, evaluated after 13 days; for pest or weed control at 250 g/ha: Amaranthus retroflexus, pre-emergence, 312 h, read-out: damage to plant (100=total damage to plant; 0=no damage to plant); for damage to plant (100=total damage to plant; 0=no damage to plant): 250 g/ha
Protocol: as §1

[5] = test system: Abuthilon theophrasti (ABUTH); test: Herbicidal glasshouse test, pre-emergence; conditions: PRE Application, evaluated after 13 days; for pest or weed control at 250 g/ha: Abutilon theophrasti, pre-emergence, 312 h, read-out: damage to plant (100=total damage to plant; 0=no damage to plant); for damage to plant (100=total damage to plant; 0=no damage to plant): 250 g/ha
Protocol: as §1

Setaria faberi (SETFA) [6] = test: Herbicidal glasshouse test, post-emergence; conditions: POST Application, evaluated after 13 days; for pest or weed control at 250 g/ha: Setaria faberi, post-emergence, 312 h, read-out: damage to plant (100=total damage to plant; 0=no damage to plant); for damage to plant (100=total damage to plant; 0=no damage to plant): 250 g/ha
Protocol: as §1

[7] = test system: Alopecurus myosuroides (ALOMY); test: Herbicidal glasshouse test, post-emergence; conditions: POST Application, evaluated after 13 days; for pest or weed control at 250 g/ha: Alopecurus myosuroides, post-emergence, 312 h, read-out: damage to plant (100=total damage to plant; 0=no damage to plant); for damage to plant (100=total damage to plant; 0=no damage to plant): 250 g/ha
Protocol: as §1

[8] = test system: Echinochloa crus-galli (ECHCG); test: Herbicidal glasshouse test, post-emergence; conditions: POST Application, evaluated after 13 days; for pest or weed control at 250 g/ha: Echinochloa crus-galli, post-emergence, 312 h, read-out: damage to plant (100=total damage to plant; 0=no damage to plant); for damage to plant (100=total damage to plant; 0=no damage to plant): 250 g/ha
Protocol: as §1

[9] = test system: Amaranthus retoflexus (AMARE); test: Herbicidal glasshouse test, post-emergence; conditions: POST Application, evaluated after 13 days; for pest or weed control at 250 g/ha: Amaranthus retroflexus, post-emergence, 312 h, read-out: damage to plant (100=total damage to plant; 0=no damage to plant); for damage to plant (100=total damage to plant; 0=no damage to plant): 250 g/ha
Protocol: as §1

[10] = test system: Abuthilon theophrasti (ABUTH); test: Herbicidal glasshouse test, post-emergence; conditions: POST Application, evaluated after 13 days; for pest or weed control at 250 g/ha: Abutilon theophrasti, post-emergence, 312 h, read-out: damage to plant (100=total damage to plant; 0=no damage to plant); for damage to plant (100=total damage to plant; 0=no damage to plant): 250 g/ha
Protocol: as §1

Structure (SMILES)	pest or weed control at 250 g/ha (Setaria faberi (SETFA) [1]) [%]	pest or weed control at 250 g/ha [2] [%]	pest or weed control at 250 g/ha [3] [%]	pest or weed control at 250 g/ha [4] [%]	pest or weed control at 250 g/ha [5] [%]	pest or weed control at 250 g/ha (Setaria faberi (SETFA) [6]) [%]	pest or weed control at 250 g/ha [7] [%]	pest or weed control at 250 g/ha [8] [%]	pest or weed control at 250 g/ha [9] [%]	pest or weed control at 250 g/ha [10] [%]	damage to plant (100=total damage to plant; 0=no damage to plant) (Setaria faberi (SETFA) [1])	damage to plant (100=total damage to plant; 0=no damage to plant) [2]	damage to plant (100=total damage to plant; 0=no damage to plant) [3]	damage to plant (100=total damage to plant; 0=no damage to plant) [4]	damage to plant (100=total damage to plant; 0=no damage to plant) [5]	damage to plant (100=total damage to plant; 0=no damage to plant) (Setaria faberi (SETFA) [6])	damage to plant (100=total damage to plant; 0=no damage to plant) [7]	damage to plant (100=total damage to plant; 0=no damage to plant) [8]	damage to plant (100=total damage to plant; 0=no damage to plant) [9]	damage to plant (100=total damage to plant; 0=no damage to plant) [10]
Cc1ccc2cc(C(=O)C3C(=O)CCCC3=O)c(=O)n(C)c2n1 [Compound 1.2, 2-(1,7-Dimethyl-2-oxo-1,2-dihydro[1,8]-naphthyridine-3-carbonyl)-cyclohexane-1,3-dione]	70	20	90	40	70	80	40	80	80	80	–	–	–	–	–	–	–	–	–	–
Cn1c(=O)c(C(=O)C2C(=O)CCCC2=O)cc2cccnc21 [Compound 1.29]	10	30	100	100	90	90	30	80	90	90	–	–	–	–	–	–	–	–	–	–
Cc1cc(C)c2cc(C(=O)C3C(=O)CCCC3=O)c(=O)n(C)c2n1 [Compound 1.42]	0	0	0	0	0	60	0	70	70	50	–	–	–	–	–	–	–	–	–	–
COCn1c(=O)c(C(=O)C2C(=O)CCCC2=O)cc2cc(F)cnc21 [Compound 1.43]	100	40	100	100	100	80	60	80	80	80	–	–	–	–	–	–	–	–	–	–
COCCn1c(=O)c(C(=O)C2C(=O)CCCC2=O)cc2cc(F)cnc21 [Compound 1.44]	100	90	100	100	90	80	80	80	80	90	–	–	–	–	–	–	–	–	–	–
O=C1CCCC(=O)C1C(=O)c1cc2cc(F)cnc2n(CC(F)F)c1=O [Compound 1.45]	–	–	–	–	–	–	–	–	–	–	80	70	100	100	100	80	60	80	80	80
COCn1c(=O)c(C(=O)C2C(=O)CCCC2=O)cc2cc(F)c(C)nc21 [Compound 1.46]	80	60	100	100	80	70	70	80	70	100	–	–	–	–	–	–	–	–	–	–
COCCn1c(=O)c(C(=O)C2C(=O)CCCC2=O)cc2cc(F)c(C)nc21 [Compound 1.47]	90	50	90	100	90	80	80	90	70	70	–	–	–	–	–	–	–	–	–	–
O=C1CCCC(=O)C1C(=O)c1cc2cc(F)cnc2n(CCC=C(F)F)c1=O [Compound 1.48]	–	–	–	–	–	–	–	–	–	–	90	80	100	100	90	80	70	80	40	80
CCn1c(=O)c(C(=O)C2C(=O)CCCC2=O)cc2cc(F)cnc21 [Compound 1.49]	90	60	100	100	90	70	70	80	70	80	–	–	–	–	–	–	–	–	–	–
CCCn1c(=O)c(C(=O)C2C(=O)CCCC2=O)cc2cc(F)cnc21 [Compound 1.50]	100	80	100	90	90	80	70	80	70	80	–	–	–	–	–	–	–	–	–	–
Cn1c(=O)c(C(=O)C2C(=O)CCCC2=O)cc2ccc(Br)cc21 [Compound 3.42]	0	10	70	80	50	70	20	80	80	90	–	–	–	–	–	–	–	–	–	–
O=C1CCCC(=O)C1C(=O)c1cc2cc(F)cnc2n(-c2cccc(C(F)(F)F)c2)c1=O [Compound 4.11]	–	–	–	–	–	–	–	–	–	–	80	70	90	100	90	90	90	90	90	100
O=C1CCCC(=O)C1C(=O)c1cc2cc(F)cnc2n(Cc2ccccc2F)c1=O [Compound 4.15]	–	–	–	–	–	–	–	–	–	–	0	0	80	50	70	70	30	80	50	80
O=C1CCCC(=O)C1C(=O)c1cc2cc(F)cnc2n(CCOc2ccccc2)c1=O [Compound 4.16]	20	20	50	30	50	60	40	80	50	80	–	–	–	–	–	–	–	–	–	–
